Laboratory results published in US20100081632A1, “High-content and high throughput assays for identification of lipid-regulating pathways, and novel therapeutic agents for lipid disorders” (Odyssey Thera, Inc., priority 2008, published 2010).

Key:
PCSK9/LDLR complex = assay: PCSK9/LDLR protein complementation assay (PCA) in transfected HEK293 cells; format: cell-based, human
Experimental: In one of the embodiments of the invention, the cell-based assay consists of transfected cDNAs encoding full-length PCSK9 and LDL receptor, each sequence linked in-frame to rationally designed fragments of a variant of green fluorescent protein. These two plasmid constructs were co-expressed in human HEK cells plated in 384-well poly-lysine coated plates. After 24-48 hours of incubation, drugs (or vehicle controls) were added to the media, and the existence and localization of PCSK9/LDL receptor complexes was quantified on an Opera automated confocal fluorescence microscopy platform (Perkin Elmer). Images were subjected to automated image analysis, and results quantified and subjected to statistical analysis.
HEK 293T cells were seeded in normal growth media containing DMEM and 10% FBS at 1.5×10^4 in PDL-coated 96-well plates 24 hours prior to transfection. Cells were transfected with 50 ng of each construct DNA per well with Fugene 6, using conditions recommended by the manufacturer. Cells were allowed to express the construct pairs for 24- or 48 h, then the cells were simultaneously fixed and stained with either a 1:300 dilution of Hoescht 33342 (Molecular Probes, Eugene, Oreg.) or a 1:1000 dilution of Draq5 (Biostatus, Shepshed, Leicestershire, U.K.) in 4% formaldehyde for 15 minutes at room temperature. The cells were washed to remove fixative, and overlaid with a small volume of Hank's Buffered Salt Solution. Images were acquired on a Discovery-1 (Molecular Devices) epifluorescence microscope using the 20× objective, and DAPI and FITC filter sets. (with excitation at 350 and 488 nm wave lengths) or on an Opera (Perkin Elmer) confocal microscope using the 20× water objective with the following excitation and emission settings: Ex 488 nm/Em 535 nm (YFP) and Ex 635 nm/Em 640 nm (Draq5).
To test for in vitro PCSK9 function and activity, we developed a protein complementation assay (PCA) with PCSK9-IFP2 and the LDL-IFP1 receptor (PCSK9/LDLR). Expression of wild type PCSK9-IFP2 in transfected HEK293 cells was confirmed by Western blot using an antibody against YFP (FIG. 2). Cotranfection of HEK cells with increasing ratios of PCSK9-IFP2 and LDLR-IFP1 DNA constructs results in increased PCA signal (FIG. 3) but not when each construct is expressed alone. The intracellular localization of the wild-type PCSK9-IFP2/LDLR-IFP1 PCA interaction is similar to the known localization of wild type PCSK9 in the endoplasmic reticulum (ER) and post-ER compartments in various cell types (20, 21). The PCA signal for the PCSK9-IFP2/LDLR-IFP1 pair appears to be localized to multiple intracellular trafficking sites including the ER, endosomes and the cell surface.
In order to test the viability of using the PCSK9-IFP2/LDLR-IFP1 PCA as a drug discovery tool, we tested a drug plate containing 50 known drugs at 3 doses in the assay (Table 10) as well as several protein kinase inhibitors (representative compounds are depicted in Table 11). […] We observed the following effects of known compounds on the PCSK9/LDLR complex:
A collection of small molecular weight compounds was screened. […] To expand on this observation, we characterized the effects of a larger panel of kinase inhibitors on the PCSK9/LDLr complex. 47 compounds representing a broad range of known receptor tyrosine and serine-threonine kinase inhibitors were assessed (table 2). A subset was identified that had inhibitory effects on the PCSK9/LDLr complex (degree of assay inhibition relative to control is indicated by “% control”, Table 2).

HepG2 cells = assay: LDL uptake in HepG2 cells (human LDL conjugated to DyLight 549); format: cell-based; details: for x-fold increase (hepatic LDL uptake): HepG2
Source text: The assay uses human LDL conjugated to DyLight™ 549 as a fluorescent probe for detection of LDL uptake into HepG2 cells.
We assessED whether compounds that inhibit the PCSK9/LDLr assay would have activity on LDL uptake and metabolism in a relevant cell type. PCSK9 is thought to be a negative regulator of LDLr. Thus, we predicted that compounds inhibiting the PCSK9 PCA signal would increase LDL receptor expression and LDL uptake. An assay using human LDL conjugated to DyLight™ 549 as a fluorescent probe for detection of LDL uptake into cultured human hepatocytes. A separate assay, using an LDL receptor-specific polyclonal antibody and a DyLight™ 488-conjugated secondary antibody, was also performed to localize LDL receptors
Quantitation of the increased LDL uptake of these and other kinase inhibitors targeting Akt, mTOR, p38, GSK3 and VEGF is shown in Table 4.

CC/C(=C(\c1ccccc1)c1ccc(OCCN(C)C)cc1)c1ccccc1 [Tamoxifen]
% Control (PCSK9/LDLr PCA) (PCSK9/LDLR complex; dose 30 μM): 53%

C=C1[C@@H](C)[C@H]2[C@H](Cc3ccccc3)NC(=O)[C@]23OC(=O)/C=C/[C@H](O)CCC[C@@H](C)C/C=C/[C@H]3[C@@H]1O [Cytochalasin B]
% Control (PCSK9/LDLr PCA) (PCSK9/LDLR complex; dose 2 μM): 53%

O=C1NC(=O)C(c2ccccc2[N+](=O)[O-])=C1Nc1ccc(O)c(Cl)c1 [SB 415286]
x-fold increase (LDL uptake in Hepg2 cells) (HepG2 cells; dose 25 μM): 1.6 x-fold
x-fold increase (hepatic LDL uptake) (HepG2 cells; dose 25 µM): 1.6 x-fold

C=C1CC[C@@H]2[C@](C)(CO)[C@H](O)CC[C@@]2(C)[C@@H]1C/C=C1/C(=O)OC[C@H]1O [Andrographolide]
% Control (PCSK9/LDLr PCA) (PCSK9/LDLR complex; dose 100 μM): 43%

COc1cc2ncnc(Nc3cccc(Br)c3)c2cc1OC [PD-153035]
x-fold increase (LDL uptake in Hepg2 cells) (HepG2 cells; dose 0.2 μM): 1.3 x-fold
x-fold increase (hepatic LDL uptake) (HepG2 cells; dose 0.2 µM): 1.3 x-fold

COC[C@H]1OC(=O)c2coc3c2[C@@]1(C)C1=C(C3=O)[C@@H]2CCC(=O)[C@@]2(C)C[C@H]1OC(C)=O [Wortmannin]
% Control (PCSK9/LDLr PCA) (PCSK9/LDLR complex; dose 1.5 μM): 63%

CC(C)(C)c1ccc(C(O)CCCN2CCC(C(O)(c3ccccc3)c3ccccc3)CC2)cc1 (centres unmarked) [Terfenadine]
% Control (PCSK9/LDLr PCA) (PCSK9/LDLR complex; dose 10 μM): 59%

O=c1cc(N2CCNCC2)oc2c(-c3ccccc3)cccc12 [LY 303511]
x-fold increase (LDL uptake in Hepg2 cells) (HepG2 cells; dose 3 μM): 1.4 x-fold
x-fold increase (LDL uptake in Hepg2 cells) (HepG2 cells; dose 30 μM): 2.1 x-fold
x-fold increase (hepatic LDL uptake) (HepG2 cells; dose 30 µM): 2.1 x-fold
x-fold increase (hepatic LDL uptake) (HepG2 cells; dose 3 µM): 1.4 x-fold

CN[C@H]1CC[C@@H](c2ccc(Cl)c(Cl)c2)c2ccccc21 [Sertraline]
% Control (PCSK9/LDLr PCA) (PCSK9/LDLR complex; dose 100 μM): 46%

CNc1cc2c(Nc3cccc(Br)c3)ncnc2cn1 [PD-158780]
x-fold increase (LDL uptake in Hepg2 cells) (HepG2 cells; dose 0.3 μM): 1.3 x-fold
x-fold increase (hepatic LDL uptake) (HepG2 cells; dose 0.3 µM): 1.3 x-fold

O=C1C(SCCO)=C(SCCO)C(=O)N1c1ccc(-c2ccccc2)cc1 [PM20]
% Control (PCSK9/LDLr PCA) (PCSK9/LDLR complex; dose 10 μM): 53%

CN(C)CCCN1c2ccccc2CCc2ccc(Cl)cc21 [Clomipramine]
% Control (PCSK9/LDLr PCA) (PCSK9/LDLR complex; dose 50 μM): 46%

CN(C)CCC=C1c2ccccc2CCc2ccccc21 [Amitryptyline]
% Control (PCSK9/LDLr PCA) (PCSK9/LDLR complex; dose 100 μM): 48%

CN[C@@H]1C[C@H]2O[C@@](C)([C@@H]1OC)n1c3ccccc3c3c4c(c5c6ccccc6n2c5c31)C(=O)NC4 [Staurosporine]
% Control (PCSK9/LDLr PCA) (PCSK9/LDLR complex; dose 1 μM): 34%

Oc1cccc(-c2nc(N3CCOCC3)c3sccc3n2)c1 [PI 3-K alpha Inhibitor IV, 3-(4-Morpholinothieno[3,2-d]pyrimidin-2-yl)phenol]
% Control (PCSK9/LDLr PCA) (PCSK9/LDLR complex; dose 30 μM): 46%

Oc1ccc(-c2nc(-c3ccc(F)cc3)c(-c3ccncc3)[nH]2)cc1 [SB 202190]
x-fold increase (LDL uptake in Hepg2 cells) (HepG2 cells; dose 1 μM): 2.7 x-fold
x-fold increase (hepatic LDL uptake) (HepG2 cells; dose 1 µM): 2.7 x-fold
